Values joined by “and” are separate entries in the source; they are usually repeats but may differ in a detail not shown here. Identical values can stand only once.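 Step 1: Grow cells in 96-well plates. Step 2: Expose to compound for 48 hours at 5 concentrations. Step 3: Interpolate endpoints linearly; if unreached, use highest concentration. The concentration for 50% growth inhibition is given as GI50. At the TGI there is no net growth.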
Assays:
Experiment in all cases: NCI anticancer screen, dose series, 48 h
[1] = system: RXF 393 renal
[2] = system: SK-MEL-2 melanoma
[3] = system: A498 renal
[4] = system: HL-60(TB) leukemia
[5] = system: HS 578T breast
[6] = system: OVCAR-3 ovarian
[7] = system: A549 NSCLC
[8] = system: CCRF-CEM leukemia

| Structure (SMILES) | GI50 [1] | TGI [1] | GI50 [2] | TGI [2] | GI50 [3] | TGI [3] | GI50 [4] | TGI [4] | GI50 [5] | TGI [5] | GI50 [6] | TGI [6] | GI50 [7] | TGI [7] | TGI [8] | GI50 [8] |
| --- | --- | --- | --- | --- | --- | --- | --- | --- | --- | --- | --- | --- | --- | --- | --- | --- |
| C=CCCCCCCCCC(=O)[O][Sn]([CH2]CCC)([CH2]CCC)[CH2]CCC | 0.0991 µM | 0.255 µM | 0.189 µM | 0.377 µM | 0.14 µM | 0.276 µM | 0.169 µM | 0.464 µM | 0.166 µM | 0.493 µM | 0.147 µM | 0.285 µM | 0.164 µM | 0.322 µM |  |  |
| CCN(CC)CCOc1ccc(/C(=C(\Cl)c2ccccc2)c2ccccc2)cc1 | 0.955 µM and 1.49 µM | 2.46 µM and 3.03 µM | 3.26 µM and 1.64 µM | 10.4 µM and 3.7 µM | 6.96 µM and 2.32 µM | 13.7 µM and 10.1 µM | 2.1 µM and 3.13 µM | 7.77 µM and 6.16 µM | 5.25 µM and 3.15 µM | 19.4 µM and 17.7 µM | 5.24 µM and 3.42 µM | 11.4 µM and 15.7 µM | 2.92 µM and 4.32 µM | 9.57 µM and 15.3 µM |  |  |
| C[C@]12CC[C@H]3[C@@H](CC=C4C[C@@H](O)CC[C@@]43C)[C@@H]1CC[C@@H]2N(CCO)CCO |  | > 100 µM |  | > 100 µM |  | 73 µM |  |  |  | > 100 µM |  | > 100 µM |  | > 100 µM | > 100 µM |  |
| FC(F)(F)c1cccc(Nc2nccc(-c3cnn4nc(-c5ccccc5)ccc34)n2)c1 | 4.63 µM | 10 µM |  |  | > 14 µM | > 25 µM | > 25 µM | > 25 µM | 7.38 µM | > 20.3 µM | 5.24 µM | 11 µM | 5.36 µM | > 14.3 µM | > 25 µM | > 17.9 µM |
| COc1cc([N+](=O)[O-])cc2c3c(n(C)c12)[C@@]1(C)CCC2c4ccc(OCc5ccccc5)cc4CCC2C1C3 (stereo partly specified) | 40.8 µM | > 100 µM | > 100 µM | > 100 µM | 35.6 µM | > 100 µM |  |  | > 100 µM | > 100 µM | > 100 µM | > 100 µM | 72.2 µM | > 100 µM | > 100 µM | > 100 µM |
| COc1cc(C2=NOC(c3cc(OC)c(OC)c(OC)c3)C2)ccc1OCCCCOc1cc2c(cc1OC)C(=O)N1CCC[C@H]1C=N2 (stereo partly specified) |  |  | 0.241 µM | 0.612 µM | 0.194 µM | 0.396 µM | 0.309 µM | 6.5 µM | 0.234 µM | 0.681 µM | 0.322 µM | 2.51 µM | 0.348 µM | 11.9 µM | 0.466 µM | 0.164 µM |
| CC(=O)OCCN1c2ccccc2Sc2cnccc21 |  | > 10 µM |  | > 10 µM |  | > 10 µM |  | > 10 µM |  |  |  | > 10 µM |  | > 10 µM | > 10 µM |  |
| CCC(C)c1c(Cl)nc(Cl)nc1Cl (stereo unspecified) |  | 20.7 µM |  | > 100 µM |  |  |  | > 100 µM |  | > 100 µM |  | 14.8 µM |  |  | > 100 µM |  |
| CC(C)c1nc(CN(C)C(=O)N[C@H](C(=O)N[C@@H](Cc2ccccc2)C[C@H](O)[C@H](Cc2ccccc2)NC(=O)OCc2cncs2)C(C)C)cs1 | 17.7 µM | 35.8 µM | 31.7 µM | > 100 µM | 19.1 µM | 43.2 µM | 12.2 µM | 36.9 µM |  |  | 21.5 µM | > 56.5 µM | 23 µM | 65.5 µM | 50.5 µM | 19.8 µM |
| CC(C)(CC(=O)Nc1ccccc1)C(=O)O |  |  |  | > 100 µM |  | > 100 µM |  | > 100 µM |  |  |  | > 100 µM |  | > 100 µM | > 100 µM |  |
| Nc1cc(N)c2nc(-c3ccccc3)c(Nc3ccc(Cl)c(Cl)c3)nc2c1 | 6.23 µM | 31.2 µM | 2.32 µM | 19.1 µM | 12.1 µM | 26.3 µM | 2.59 µM | 71.7 µM | 18.9 µM | 51.7 µM | 2.93 µM | 9.91 µM | 10.8 µM | 34.7 µM |  |  |
| NC(=O)c1ccc(I)c(N)c1 | > 100 µM | > 100 µM | > 100 µM | > 100 µM |  |  | > 100 µM | > 100 µM | > 100 µM | > 100 µM | > 100 µM | > 100 µM | > 100 µM | > 100 µM | > 100 µM | > 100 µM |
| C[C@@H]1OC(O)[C@@H](F)[C@H](O)[C@@H]1O (stereo partly specified) |  |  | > 100 µM | > 100 µM | > 100 µM | > 100 µM | > 100 µM | > 100 µM | > 100 µM | > 100 µM | > 100 µM | > 100 µM | > 100 µM | > 100 µM | > 100 µM | > 100 µM |
| CC1=CC(=Nc2ccc(N(CCCl)CCCl)cc2)C=C(C)C1=O |  |  | 1.48 µM | 4.77 µM | 1.68 µM | 4.13 µM | 0.309 µM | 2.9 µM | 2.08 µM | 7.73 µM | 1.05 µM | 3.13 µM | 1.61 µM | 24 µM | 5.21 µM | 0.187 µM |

Reference: PubChem BioAssay (NCI)
